The source of these data is US20200397965A1, “METHOD AND SYSTEM FOR […] MONOXIDE (CO) ADMINISTRATION TO EX-VIVO FLUIDS” (Julius-Maximilians-Universitaet Wuerzburg, priority 2018, published 2020).

This data set can be described thus: ICP-MS analysis for molybdenum in harvested organs and blood after ECCORS CO delivery in veno-arterial ECMO. It is filed as in vivo, landrace-hybrid pigs. The note with it: swine on ECMO with ECCORS, Beck1 injected into FeCl3 secondary circuit behind silicone membrane. The method, then:
After obtaining consent by Regierungspraesidium Freiburg, seven landrace-hybrid pigs (weight 52±2 kg) were anesthetized (continuous infusion of propofol, fentanyl and cisatracurium), mechanically ventilated and monitored with electrocardiogram, pulse-oximetry and invasive blood pressure measurement by cannulating the carotid and pulmonary artery. Instrumentation with veno-arterial ECMO (extracorporeal membrane oxygenation) was carried out in a sterile technique: Venous access was achieved by ultrasound-guided cannulation of femoral vein (21 French HLS cannula, Maquet, Rastatt, Germany), while arterial inflow into the femoral artery was established using 17 French HLS cannula from Maquet, (Rastatt, Germany). The ECMO circuit (primary circuit) was then set-up using a customary centrifugal pump head (Revolution 5, Sorin, Rome, Italy), an oxygenator (EOS ECMO, Sorin, Rome, Italy), and 3/8” tubing for interconnection. The system was regulated using a modified console (core element: SCP-Console, Sorin, Rome, Italy).
The ECCORS was then integrated in line with the oxygenator into the primary ECMO circuit. A commercially available PDMSXA-1.0 silicone membrane module from PermSelect (AnnArbor, II) served as core functional element of the ECCORS. […]
Tissue was analyzed for CO effects and residual CORM constituents in the harvest organs and blood using ICP-MS analysis for molybdenum. […]

On to Mo(CO)3(CNCH2COOH)3 [CORM], for which the “toxic components of CORM / transition metals found in tissue or blood” value was “no transition metals can be found in the tissue or blood”.
